In patent US7608249B2, “Enhanced substrate imaging by reversible binding to a paramagnetic complex” (Bracco Imaging S.p.A., priority 2001, dated 2009):

How the values were obtained:
[1] = Affinity of paramagnetic complex towards substrate by PRE method; format: binding
Description: (§1) Since the relaxivity of the two paramagnetic species involved in the equilibrium, that bound to the substrate molecule and that unbound, are different, the well-established Proton Relaxation Enhancement (PRE) method (Aime S, Fasano M, Terreno E, Botta M in The Chemistry of Contrast Agents in Medical Magnetic Resonance Imaging, Merbach A E, Tóth E (eds), Wiley & Sons: Chichester, 2001, 203-209) may be conveniently used for estimating the affinity of the paramagnetic complex towards the substrate molecule.
(§2) The KA values obtained for the adducts disclosed in the following are measured according to this PRE method.

[2] = Affinity of paramagnetic complex towards substrate by Proton Relaxation Enhancement (PRE) method; format: binding; settings: Lactate; pH 7 and 25° C.
Description: as §1, §2
By adding lactate to an aqueous solution of GdDO3A the following equilibrium takes place: GdDO3A(H2O)2+Lactate ? GdDO3A(Lactate)+2H2O
Since the relaxivity of the two Gd(III) species involved in the equilibrium are different (higher for GdDO3A(H2O)2), the well-consolidated Proton Relaxation Enhancement (PRE) method (Aime S, Fasano M, Terreno E, Botta M in The Chemistry of Contrast Agents in Medical Magnetic Resonance Imaging, Merbach A E, Tóth E (eds), Wiley & Sons: Chichester, 2001, 203-209) may be conveniently used for estimating the affinity of the GdDO3A complex towards Lactate.

Molecule | KA ([1]; aspartate, 298 K and pH 7) [M⁻¹] | KA ([1]; oxalate, 298K and pH 7) [M⁻¹] | KA [2] [M⁻¹] | KA ([1]; citrate, pH 7 and 25° C.) [M⁻¹] | binding strength ([1]; inorganic phosphate, pH 7.4 and 25° C.) [M⁻¹]
10-[(3-carboxyphenyl)methyl]-1,4,7,10-tetraazaciclododecane-1,4,7-triacetic acid gadolinium complex [Gd-3] | 120 | > 50000 | – | – | –
O=C([O-])CN1CCNCCN(CC(=O)[O-])CCN(CC(=O)[O-])CC1.[Gd+3] [GdDO3A] | – | – | 150 | 40 | 50
